Laboratory results from patent publication US8404677B2, “Kinase inhibitors” (Genosco, priority 2009, dated 2013).

How the values were obtained:
[1] = test system: SN4741 cells transfected with vector; test: Neuroprotection from LRRK2-mediated dopaminergic cell death (H2O2, crystal violet); format: cell-based, murine; details: 100 μM hydrogen peroxide
Description: (§1) SN4741, a murine dopaminergic cell line were cultured in DMEM containing 10 FBS at 37° C., respectively. SN4741 cells (1.5×10^4/well) were seeded in 48 well plates 1 day before transient transfection with 1 μg of the pcDNA3.1 plasmids of either vector, LRRK wildtype cDNA, LRRK G2019S cDNA, by standard CaCl2 precipitation. Two days after transfection, cells were treated with 100 μM hydrogen peroxide for 1 day and cell viability was measured by crystal violet assay. For compound treatment, the test compounds were added at 0.05 μM, 0.5 μM and 5 μM and the cells were incubated for 1 hour prior to the addition of hydrogen peroxide.
(§2) SN4741 cells were transfected with plasmids containing the LRRK2 wild-type or G2019S and incubated them for 2 days followed by addition of 100 μM of hydrogen peroxide for 24 h to sensitize them to oxidative stress. Cell survival was assessed using the crystal violet.

[2] = test system: SN4741 cells overexpressing LRRK2 wild-type; test: as above; format: cell-based, murine; details: for Percent Cell Death: LRRK2 WT, 100 μM hydrogen peroxide
Description: as §1, §2

[3] = test system: SN4741 cells overexpressing LRRK2 G2019S; test: as above; format: cell-based, murine; details: for Percent Cell Death: 100 μM hydrogen peroxide
Description: as §1, §2

[4] = test system: TNF-α release in THP-1 cells, IgG stimulation; test: SYK dependent TNF-α release assay (IgG stimulation); format: cell-based, human
Description: Compounds of the invention were tested for their TNF-α release effect on THP-1 cells. For SYK dependent TNF-α release assay (i.e., via IgG stimulation), THP-1 cells derived from human monocytic cells were obtained from the American Type Culture Collection (ATCC, Manassas, Va.). This cell line was maintained with an Roswell Park Memorial Institute (RPMI) medium (GIBCO™) containing 10 fetal bovine serum (FBS; GIBCO™) and 0.05 mM 2-mercaptoethanol. The THP-1 cells were seeded at 1×10^5 cells/100 μL/well into human IgG ([…], INVITROGEN™)-coated 96 well culture plate, and serially diluted compound was then added. After an 18-hour incubation period at 37° C., supernatants were collected for the determination of the TNF-α level by enzyme-linked immunosorbent assay (ELISA), and the remaining cells were subjected to an MTT (yellow tetrazolium salt) assay to determine the cytotoxic effects of compound.

[5] = test system: MDA-MB-231/ATCC; test: cells; format: cell-based; details: MDA-MB-231/ATCC (Breast Cancer)
[6] = test system: M14; test: cells; format: cell-based; details: M14 (Melanoma)
[7] = test system: SK-OV-3; test: cells; format: cell-based; details: SK-OV-3 (Ovarian Cancer)
[8] = biological target: PYK2 (Homo sapiens, UniProt Q14289); test: Inhibition of enzymatic kinase activity (LANCE Ulight); format: biochemical; set-up: Purified full-length human SYK, ZAP70, PIM1, PYK2; purchased Carna Biosciences; details: at 1 μM concentration; read-out: PYK2 percentage inhibition
PYK2, sequence (Q14289 whole entry): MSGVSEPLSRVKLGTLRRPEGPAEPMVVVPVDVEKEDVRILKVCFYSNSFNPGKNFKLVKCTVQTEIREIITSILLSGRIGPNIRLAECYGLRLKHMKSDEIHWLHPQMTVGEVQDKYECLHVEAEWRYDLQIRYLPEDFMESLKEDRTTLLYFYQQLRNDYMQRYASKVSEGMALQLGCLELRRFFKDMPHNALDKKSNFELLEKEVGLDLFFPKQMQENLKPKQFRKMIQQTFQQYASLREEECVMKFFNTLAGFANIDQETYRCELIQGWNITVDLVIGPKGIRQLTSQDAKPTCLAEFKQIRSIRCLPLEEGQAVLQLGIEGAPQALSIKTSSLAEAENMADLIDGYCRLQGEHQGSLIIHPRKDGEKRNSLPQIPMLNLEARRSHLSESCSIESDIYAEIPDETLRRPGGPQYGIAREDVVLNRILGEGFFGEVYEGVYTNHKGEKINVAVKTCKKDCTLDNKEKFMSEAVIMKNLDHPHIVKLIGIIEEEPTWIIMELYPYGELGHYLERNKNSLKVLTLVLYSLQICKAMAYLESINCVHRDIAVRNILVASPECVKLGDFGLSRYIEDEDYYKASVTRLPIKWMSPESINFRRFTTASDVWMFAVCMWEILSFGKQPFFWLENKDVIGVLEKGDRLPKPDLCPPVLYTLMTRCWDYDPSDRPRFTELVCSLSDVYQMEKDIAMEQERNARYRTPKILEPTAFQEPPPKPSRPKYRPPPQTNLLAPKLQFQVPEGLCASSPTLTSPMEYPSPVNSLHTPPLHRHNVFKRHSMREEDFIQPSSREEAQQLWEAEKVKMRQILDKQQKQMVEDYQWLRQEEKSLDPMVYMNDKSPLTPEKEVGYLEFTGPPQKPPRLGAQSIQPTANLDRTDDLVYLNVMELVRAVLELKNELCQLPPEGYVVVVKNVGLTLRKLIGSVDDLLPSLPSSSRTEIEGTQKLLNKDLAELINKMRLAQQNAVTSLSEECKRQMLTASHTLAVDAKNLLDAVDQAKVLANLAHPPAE
Description: (§3) Inhibition of Enzymatic SYK, ZAP70, PYK2, FAK, PIM1, RET, FLT3, JAK2 and LRRK2 Kinase Activity
(§4) Compounds of the invention were initially diluted to 10 mM in 100% DMSO (CALBIOCHEM™) for storage and made into kinase buffer solution to create a compound concentration ranging from 1 uM and 10 uM. Serial dilutions of compounds of the invention were dispensed into a 96-well plate (GREINER BIOSCIENCES™) at 6 μL each. Purified full-length human SYK, ZAP70, PIM1, PYK2 and truncated human FAK, RET, FLT3, JAK2, and LRRK2 (CARNA BIOSCIENCES™) were diluted in kinase buffer and added to the compound solutions and pre-incubated for 30 minutes at room temperature (1 hour for PYK2). […] The reaction mixture was incubated for 1 hour (2 hours for PYK2). Following the incubation, the stop solution made with EDTA, water, and Lance detection buffer ([…]™) was added (12 μL each) to stop phosphorylation.

[9] = biological target: SYK (Homo sapiens, UniProt P43405); test: as above; format: biochemical; set-up: Purified full-length human SYK, ZAP70, PIM1, PYK2; purchased Carna Biosciences; details: at 1 μM concentration; read-out: SYK percentage inhibition
Description: as §3, §4

[10] = test system: SF-539; test: cells; format: cell-based; details: SF-539 (CNS Cancer)
[11] = test system: SK-MEL-28; test: cells; format: cell-based; details: SK-MEL-28 (Melanoma)
[12] = test system: SF-295; test: cells; format: cell-based; details: SF-295 (CNS Cancer)
[13] = test system: NCI/ADR-RES; test: cells; format: cell-based; details: NCI/ADR-RES (Ovarian Cancer)
[14] = test system: U251; test: cells; format: cell-based; details: U251 (CNS Cancer)
[15] = Homo sapiens, read-out: LC50 (the source's name)

With O=c1[nH]ccc2nc(N3CCC(O)CC3)nc(Nc3cccc(C(F)(F)F)c3)c12 [Compound 6, 2-(4-hydroxypiperidin-1-yl)-4-(3-(trifluoromethyl)phenylamino)pyrido[4,3-d]pyrimidine-5(6H)-one] the “Percent Cell Death” value ([1]; 0.05 uM) was 54.2%, the “Percent Cell Death” value ([1]; 0.5 uM) was 57.5% and the “Percent Cell Death” value ([1]; 5 uM) was 42.5%. The “Percent Cell Death” value ([2]; 0.05 uM) was 62.2%, the “Percent Cell Death” value ([2]; 0.5 uM) was 62.2% and the “Percent Cell Death” value ([2]; 5 uM) was 49.7%. For the same compound, the “protective effects against LRRK2-associated cell death” value ([2]; LRRK2 wild-type, at 0.05 uM and higher, vs vector, DMSO or H2O2 controls) was “increased protective effects”, the “Percent Cell Death” value ([3]; 0.05 uM) was 53.5% and the “Percent Cell Death” value ([3]; 0.5 uM) was 56.9%. For the same compound, the “Percent Cell Death” value ([3]; 5 uM) was 45.8%, the “protective effects against LRRK2-associated cell death” value ([3]; at 0.05 uM and higher, vs vector, DMSO or H2O2 controls) was “increased protective effects” and the inhibition at 0.3 µM ([4]; Homo sapiens, IgG stimulation, At 0.3 μM, THP-1, read-out: Inhibition of TNF-α Release (percentage inhibition)) was 51.9%. For the same compound, the inhibition at 1 µM ([4]; Homo sapiens, IgG stimulation, At 1 μM, THP-1, read-out: Inhibition of TNF-α Release (percentage inhibition)) was 83%, the “percentage inhibition of TNF-α release compared with R406” value ([4]; IgG stimulated release, 0.3 μM) was “greater than those exhibited by R406” and the GI50 ([5]; Homo sapiens) was 12.3 µM. For the same compound, the IC50 ([5]; Homo sapiens) was ≥ 100 µM, the CC50 [5, 15] was 100 µM and the TGI [5] was 100 µM. For the same compound, the GI50 ([6]; Homo sapiens) was 1550 nM, the IC50 ([6]; Homo sapiens) was 3.31 µM and the CC50 [6, 15] was 32.4 µM. The TGI [6] was 8.32 µM, the GI50 ([7]; Homo sapiens) was 490 nM and the IC50 ([7]; Homo sapiens) was 20 µM. For the same compound, the CC50 [7, 15] was 100 µM, the TGI [7] was 100 µM and the inhibition at 1 µM [8] was 83%. It also gave an inhibition at 1 µM [9] of 88%, a GI50 ([10]; Homo sapiens) of 5.25 µM and an IC50 ([10]; Homo sapiens) of 13.5 µM. It also gave a CC50 [10, 15] of 100 µM, a TGI [10] of 38.9 µM and a GI50 ([11]; Homo sapiens) of 4.68 µM. The IC50 ([11]; Homo sapiens) was 11 µM, the CC50 [11, 15] was 50.1 µM and the TGI [11] was 17.4 µM. It also gave a GI50 ([12]; Homo sapiens) of 2950 nM, an IC50 ([12]; Homo sapiens) of 6.76 µM and a CC50 [12, 15] of 56.2 µM. The TGI [12] was 7.76 µM, the GI50 ([13]; Homo sapiens) was 2340 nM and the IC50 ([13]; Homo sapiens) was 4.37 µM. For the same compound, the CC50 [13, 15] was 100 µM, the TGI [13] was 7.41 µM and the GI50 ([14]; Homo sapiens, U-251) was 6.17 µM. It also gave an IC50 ([14]; Homo sapiens, U-251) of 11.7 µM, a CC50 ([14]; Homo sapiens, U-251, read-out: LC50 (the source's name)) of 100 µM and a TGI [14] of 100 µM.
